Measured values taken from patent publication US11191738B2, “Use of tamoxifen for the treatment of cystic fibrosis in patients of both sexes” (GB PHARMA S.R.L., priority 2016, dated 2021).

Columns and labels:
[1] = tested on: Ca-dependent chloride channels; assay: patch clamp, perforated whole-cell configuration, chloride currents in CF bronchial epithelial cells; format: cell-based
Protocol: Our experiments were carried out on homozygous CFBE cells leading the F508del/F508 del mutation and on IB3-1 cells (immortalized cell line of bronchial epithelium cystic fibrosis cells, which bring F508del/W1282X mutation).
(§1) The chloride currents through the Ca-dependent chloride channels were measured using the patch clamp technique in perforated whole-cell configuration. The whole-cell configuration was obtained not by breaking the membrane below the electrode, but thanks to the action of an ionophore (gramicidin, 10 μg/ml) which, forming pores through the membrane, guarantees electrical continuity between the solution for the electrode and the cytoplasm, while maintaining the cellular integrity. Thus, cytoplasmic components that might be important to the maintenance of channel activity are not removed after dialysis of the cytoplasm with the solution contained in the electrode. […]
The solution for the electrode contained (mM): 145 KCl, 1 MgCl2, 10 HEPES, pH 7,25. […] The bath solution was hypertonic (measured osmolarity 337 mOsm) with respect to that of the electrode to inhibit the currents activated by swelling, present in the cells used also in isosmolarity conditions of the bath solution (as noted in previously carried out whole-cell experiments). […]

CFTR channel = target: T1, CFTR channel (Homo sapiens, UniProt P13569, DEL508-508); assay: patch clamp chloride currents in tamoxifen-treated cells with CFTR inhibitor; format: cell-based; details: cells treated with tamoxifen 5 μM for 24 hours, then tamoxifen + CFTR inh (FIG. 3)
T1 construct: having recorded the I/V in cells treated with tamoxifen for 24 hours; endogenous in cells; host or cells: CFBE (F508del/F508del) or IB3-1 (F508del/W1282X) cells
Protocol: as §1
The solution for the electrode contained (mM): 145 KCl, 1 MgCl2, 10 HEPES, pH 7,25. […] The bath solution was hypertonic (measured osmolarity 337 mOsm) with respect to that of the electrode to inhibit the currents activated by swelling, present in the cells used also in isosmolarity conditions of the bath solution (as noted in previously carried out whole-cell experiments).
Finally, in order to evaluate a possible action of tamoxifen on the CFTR channel, having recorded the I/V in cells treated with tamoxifen for 24 hours, the replacement of the solution with one containing tamoxifen and CFTR inh (specific inhibitor of CFTR) (FIG. 3) was carried out.

T1 sequence (P13569 with tags, fused parts or gaps DEL508-508): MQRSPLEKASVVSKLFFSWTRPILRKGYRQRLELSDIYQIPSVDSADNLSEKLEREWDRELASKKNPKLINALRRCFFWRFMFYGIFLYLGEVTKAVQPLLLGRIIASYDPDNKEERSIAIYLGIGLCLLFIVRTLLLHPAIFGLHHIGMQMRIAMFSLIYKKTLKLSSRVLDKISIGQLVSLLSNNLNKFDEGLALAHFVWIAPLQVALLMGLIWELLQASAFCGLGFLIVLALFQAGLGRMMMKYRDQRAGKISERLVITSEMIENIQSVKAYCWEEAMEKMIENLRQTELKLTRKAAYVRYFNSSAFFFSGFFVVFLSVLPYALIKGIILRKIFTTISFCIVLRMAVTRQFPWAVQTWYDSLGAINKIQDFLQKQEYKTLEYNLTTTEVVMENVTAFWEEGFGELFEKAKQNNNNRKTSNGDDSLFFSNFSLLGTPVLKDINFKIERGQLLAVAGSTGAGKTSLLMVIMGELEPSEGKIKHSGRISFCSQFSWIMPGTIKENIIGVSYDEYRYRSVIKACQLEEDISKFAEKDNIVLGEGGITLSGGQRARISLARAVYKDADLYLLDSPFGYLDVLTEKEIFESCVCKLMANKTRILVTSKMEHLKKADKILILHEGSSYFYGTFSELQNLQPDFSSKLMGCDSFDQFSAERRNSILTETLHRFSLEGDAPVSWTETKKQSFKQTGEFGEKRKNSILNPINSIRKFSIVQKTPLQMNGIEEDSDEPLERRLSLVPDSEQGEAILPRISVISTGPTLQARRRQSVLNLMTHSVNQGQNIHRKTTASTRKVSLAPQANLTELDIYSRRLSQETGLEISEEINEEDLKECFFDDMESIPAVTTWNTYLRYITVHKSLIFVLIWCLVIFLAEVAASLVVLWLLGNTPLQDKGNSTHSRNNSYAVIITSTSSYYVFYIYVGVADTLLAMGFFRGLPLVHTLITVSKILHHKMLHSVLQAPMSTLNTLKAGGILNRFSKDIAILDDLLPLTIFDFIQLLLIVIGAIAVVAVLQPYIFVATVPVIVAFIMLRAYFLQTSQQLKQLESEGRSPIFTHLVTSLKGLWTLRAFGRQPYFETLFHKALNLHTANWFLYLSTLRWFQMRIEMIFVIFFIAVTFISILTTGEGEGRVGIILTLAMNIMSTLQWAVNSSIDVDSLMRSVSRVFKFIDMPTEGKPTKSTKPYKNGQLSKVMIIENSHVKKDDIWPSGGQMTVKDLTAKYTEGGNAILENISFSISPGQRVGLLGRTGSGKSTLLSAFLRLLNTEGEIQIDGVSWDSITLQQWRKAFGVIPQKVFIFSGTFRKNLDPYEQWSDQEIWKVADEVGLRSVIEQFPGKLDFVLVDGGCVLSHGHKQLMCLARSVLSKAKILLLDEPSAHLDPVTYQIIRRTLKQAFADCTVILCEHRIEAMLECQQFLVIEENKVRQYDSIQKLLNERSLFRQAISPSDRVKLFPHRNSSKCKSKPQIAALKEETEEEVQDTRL

Structure (SMILES): CC/C(=C(\c1ccccc1)c1ccc(OCCN(C)C)cc1)c1ccccc1 [tamoxifen]
- current density compared to control conditions ([1]; CFBE or IB3-1 cells incubated 40 minutes with tamoxifen 5 μM (FIG. 1)): significantly increased
- effect on Ca-dependent chloride currents over time ([1]; cells incubated with 5 μM tamoxifen for 24 hours (FIG. 2)): remains almost unchanged over time
- effect on chloride currents in the presence of the inhibitor of CFTR (CFTR channel): does not change significantly
